Results published in ChEMBL document CHEMBL1201861, “Genomics of Drug Sensitity in Cancer screening data, Wellcome Trust Sanger Institute”.

Tests used:
Test in all cases: cells
CAPAN-1 = format: functional, cell-based, Homo sapiens; conditions: Homo sapiens, CAPAN-1
Description: SANGER: Inhibition of human CAPAN-1 cell growth in a cell viability assay.

NCI-H446 = format: functional, cell-based; conditions: Homo sapiens
Description: SANGER: Inhibition of human NCI-H446 cell growth in a cell viability assay.

COR-L105 = format: functional, cell-based, Homo sapiens; conditions: Homo sapiens, COR-L105
Description: SANGER: Inhibition of human COR-L105 cell growth in a cell viability assay.

EW-13 = format: functional, cell-based; conditions: Homo sapiens
Description: SANGER: Inhibition of human EW-13 cell growth in a cell viability assay.

HT-1376 = format: functional, cell-based, Homo sapiens; conditions: Homo sapiens, HT-1376
Description: SANGER: Inhibition of human HT-1376 cell growth in a cell viability assay.

SNU-387 = format: functional, cell-based, Homo sapiens; conditions: Homo sapiens, SNU-387
Description: SANGER: Inhibition of human SNU-387 cell growth in a cell viability assay.

KYSE-150 cell line = format: functional, cell-based, Homo sapiens; conditions: Homo sapiens, KYSE-150
Description: SANGER: Inhibition of human KYSE-150 cell growth in a cell viability assay.

A-375 = format: functional, cell-based, Homo sapiens; conditions: Homo sapiens, A-375
Description: SANGER: Inhibition of human A375 cell growth in a cell viability assay.

SW780 = format: functional, cell-based, Homo sapiens; conditions: Homo sapiens, SW780
Description: SANGER: Inhibition of human SW780 cell growth in a cell viability assay.

KURAMOCHI = format: functional, cell-based; conditions: Homo sapiens
Description: SANGER: Inhibition of human KURAMOCHI cell growth in a cell viability assay.

SW1573 = format: functional, cell-based, Homo sapiens; conditions: Homo sapiens, SW1573
Description: SANGER: Inhibition of human SW1573 cell growth in a cell viability assay.

ES8 = format: functional, cell-based, Homo sapiens; conditions: Homo sapiens, ES8
Description: SANGER: Inhibition of human ES8 cell growth in a cell viability assay.

DMS-114 = format: functional, cell-based, Homo sapiens; conditions: Homo sapiens, DMS-114
SNU-449 = format: functional, cell-based, Homo sapiens; conditions: Homo sapiens, SNU-449
Description: SANGER: Inhibition of human SNU-449 cell growth in a cell viability assay.

A673 = format: functional, cell-based, Homo sapiens; conditions: Homo sapiens, A673
Description: SANGER: Inhibition of human A673 cell growth in a cell viability assay.

AM-38 = format: functional, cell-based, Homo sapiens; conditions: Homo sapiens, AM-38
Description: SANGER: Inhibition of human AM-38 cell growth in a cell viability assay.

OVCAR-8 = format: functional, cell-based, Homo sapiens; conditions: Homo sapiens, OVCAR-8
Description: SANGER: Inhibition of human OVCAR-8 cell growth in a cell viability assay.

A2058 = format: functional, cell-based; conditions: Homo sapiens
Description: SANGER: Inhibition of human A2058 cell growth in a cell viability assay.

MKN-28 = format: functional, cell-based, Homo sapiens; conditions: Homo sapiens, MKN-28
Description: SANGER: Inhibition of human MKN28 cell growth in a cell viability assay.

BXPC-3 = format: functional, cell-based, Homo sapiens; conditions: Homo sapiens, BXPC-3
Description: SANGER: Inhibition of human BxPC-3 cell growth in a cell viability assay.

DoTc2-4510 = format: functional, cell-based, Homo sapiens; conditions: Homo sapiens, DoTc2-4510
HCC1806 = format: functional, cell-based, Homo sapiens; conditions: Homo sapiens, HCC1806
Description: SANGER: Inhibition of human HCC1806 cell growth in a cell viability assay.

SW684 = format: functional, cell-based, Homo sapiens; conditions: Homo sapiens, SW684
Description: SANGER: Inhibition of human SW684 cell growth in a cell viability assay.

AN3-CA = format: functional, cell-based; conditions: Homo sapiens
Description: SANGER: Inhibition of human AN3-CA cell growth in a cell viability assay.

SJSA-1 = format: functional, cell-based, Homo sapiens; conditions: Homo sapiens, SJSA-1
Description: SANGER: Inhibition of human SJSA-1 cell growth in a cell viability assay.

NCI-H1792 = format: functional, cell-based, Homo sapiens; conditions: Homo sapiens, NCI-H1792
Description: SANGER: Inhibition of human NCI-H1792 cell growth in a cell viability assay.

TE-5 = format: functional, cell-based, Homo sapiens; conditions: Homo sapiens, TE-5
Description: SANGER: Inhibition of human TE-5 cell growth in a cell viability assay.

EW-3 = format: functional, cell-based; conditions: Homo sapiens
Description: SANGER: Inhibition of human EW-3 cell growth in a cell viability assay.

C3A = format: functional, cell-based, Homo sapiens; conditions: Homo sapiens, C3A
Description: SANGER: Inhibition of human C3A cell growth in a cell viability assay.

CAL-33 = format: functional, cell-based, Homo sapiens; conditions: Homo sapiens, CAL-33
Description: SANGER: Inhibition of human CAL-33 cell growth in a cell viability assay.

UMC-11 = format: functional, cell-based, Homo sapiens; conditions: Homo sapiens, UMC-11
Description: SANGER: Inhibition of human UMC-11 cell growth in a cell viability assay.

HCC1954 = format: functional, cell-based, Homo sapiens; conditions: Homo sapiens, HCC1954
Description: SANGER: Inhibition of human HCC1954 cell growth in a cell viability assay.

COLO-800 = format: functional, cell-based, Homo sapiens; conditions: Homo sapiens, COLO-800
Description: SANGER: Inhibition of human COLO-800 cell growth in a cell viability assay.

NCI-H2122 = format: functional, cell-based, Homo sapiens; conditions: Homo sapiens, NCI-H2122
Description: SANGER: Inhibition of human NCI-H2122 cell growth in a cell viability assay.

EC-GI-10 = format: functional, cell-based, Homo sapiens; conditions: Homo sapiens, EC-GI-10
Description: SANGER: Inhibition of human EC-GI-10 cell growth in a cell viability assay.

NCI-H1993 = format: functional, cell-based, Homo sapiens; conditions: Homo sapiens, NCI-H1993
Description: SANGER: Inhibition of human NCI-H1993 cell growth in a cell viability assay.

MCF7 = format: functional, cell-based, Homo sapiens; conditions: Homo sapiens, MCF7
Description: SANGER: Inhibition of human MCF7 cell growth in a cell viability assay.

697 = format: functional, cell-based; conditions: Homo sapiens
Description: SANGER: Inhibition of human 697 cell growth in a cell viability assay.

GT3TKB = format: functional, cell-based, Homo sapiens; conditions: Homo sapiens, GT3TKB
Description: SANGER: Inhibition of human GT3TKB cell growth in a cell viability assay.

KY821 = format: functional, cell-based; conditions: Homo sapiens
Description: SANGER: Inhibition of human KY821 cell growth in a cell viability assay.

NCI-H2347 = format: functional, cell-based, Homo sapiens; conditions: Homo sapiens, NCI-H2347
Description: SANGER: Inhibition of human NCI-H2347 cell growth in a cell viability assay.

CAL-39 = format: functional, cell-based, Homo sapiens; conditions: Homo sapiens, CAL-39
Description: SANGER: Inhibition of human CAL-39 cell growth in a cell viability assay.

EOL1 = format: functional, cell-based; conditions: Homo sapiens
Description: SANGER: Inhibition of human EoL-1-cell cell growth in a cell viability assay.

LU-134-A = format: functional, cell-based; conditions: Homo sapiens
Description: SANGER: Inhibition of human LU-134-A cell growth in a cell viability assay.

LAMA-84 = format: functional, cell-based; conditions: Homo sapiens
Description: SANGER: Inhibition of human LAMA-84 cell growth in a cell viability assay.

SK-N-DZ = format: functional, cell-based, Homo sapiens; conditions: Homo sapiens, SK-N-DZ
Description: SANGER: Inhibition of human SK-N-DZ cell growth in a cell viability assay.

TGBC24TKB = format: functional, cell-based, Homo sapiens; conditions: Homo sapiens, TGBC24TKB
Description: SANGER: Inhibition of human TGBC24TKB cell growth in a cell viability assay.

NCI-H1299 = format: functional, cell-based, Homo sapiens; conditions: Homo sapiens, NCI-H1299
Description: SANGER: Inhibition of human NCI-H1299 cell growth in a cell viability assay.

Calu-3 = format: functional, cell-based, Homo sapiens; conditions: Homo sapiens, Calu-3
Description: SANGER: Inhibition of human Calu-3 cell growth in a cell viability assay.

## O=C(c1cc(Cc2n[nH]c(=O)c3ccccc23)ccc1F)N1CCN(C(=O)C2CC2)CC1 [OLAPARIB]
CAPAN-1
  IC50: > 5 µM
NCI-H446
  IC50: > 5 µM
COR-L105
  IC50: > 5 µM
EW-13
  IC50: > 5 µM
HT-1376
  IC50: > 5 µM
SNU-387
  IC50: > 5 µM
KYSE-150 cell line
  IC50: > 5 µM
A-375
  IC50: > 5 µM
SW780
  IC50: > 5 µM
KURAMOCHI
  IC50: > 5 µM
SW1573
  IC50: > 5 µM
ES8
  IC50: 1.72 µM
DMS-114
  IC50: > 5 µM
SNU-449
  IC50: > 5 µM
A673
  IC50: > 5 µM
AM-38
  IC50: > 5 µM
OVCAR-8
  IC50: > 5 µM
A2058
  IC50: > 5 µM
MKN-28
  IC50: > 5 µM
BXPC-3
  IC50: > 5 µM
DoTc2-4510
  IC50: > 5 µM
HCC1806
  IC50: > 5 µM
SW684
  IC50: > 5 µM
AN3-CA
  IC50: > 5 µM
SJSA-1
  IC50: > 5 µM
NCI-H1792
  IC50: > 5 µM
TE-5
  IC50: > 5 µM
EW-3
  IC50: 2.28 µM
C3A
  IC50: > 5 µM
CAL-33
  IC50: > 5 µM
UMC-11
  IC50: > 5 µM
HCC1954
  IC50: > 5 µM
COLO-800
  IC50: 0.442 µM
NCI-H2122
  IC50: > 5 µM
EC-GI-10
  IC50: > 5 µM
NCI-H1993
  IC50: > 5 µM
MCF7
  IC50: > 5 µM
697
  IC50: 2.84 µM
GT3TKB
  IC50: > 5 µM
KY821
  IC50: > 5 µM
NCI-H2347
  IC50: > 5 µM
CAL-39
  IC50: > 5 µM
EOL1
  IC50: 0.564 µM
LU-134-A
  IC50: > 5 µM
LAMA-84
  IC50: > 5 µM
SK-N-DZ
  IC50: > 5 µM
TGBC24TKB
  IC50: > 5 µM
NCI-H1299
  IC50: > 5 µM
Calu-3
  IC50: > 5 µM
